In patent publication US5672586A, “Herpes ribonucleotide reductase inhibitors” (Bio-Mega/Boehringer Ingelheim Research, Inc., priority 1995, dated 1997):
Where two headings read alike, the source gives them in different places.

Columns and labels:
[1] = test system: HSV-1 KOS strain; assay: Synergistic studies of acyclovir and the title compound of example 9 in the cell culture assay, HSV-1 KOS strain; format: cell-based, Herpes simplex virus type 1; details: for EC50: MOI = 0.05 PFU/cell
Description: BHK-21 cells clone 13 (ATCC CCL10) were incubated for two days in 850 cm^2 roller bottles (2×10^7 cells/bottle) with alpha-MEM medium (Gibco Canada Inc., Burlington, Ontario, Canada) supplemented with 8% (v/v) fetal bovine serum (FBS, Gibco Canada, Inc.). The cells were trypsinized and then transferred to fresh media in a 96-well microtiter plate at a density of 50,000 cells per well in 100 μL. The cells were incubated at 37° for a period of 6 hours to allow adhesion to the plate. The cells then were washed once with 100 μL of alpha-MEM supplemented with 0.5% FBS (v/v) and incubated with 100 μL of the same media for 3 days. After this period of serum starvation, the low serum media was removed. The cells were washed once with 100 μL BBMT and incubated for two hours in 100 μL of the same media. {Note: BBMT medium is described by P. Brazeau et al., Proc. Natl. Acad. Sci. U.S.A., 79, 7909 (1980).}
Thereafter, the cells were infected with HSV-1 strain F or KOS (multiplicity of infection =0.05 PFU/cell) in 50 μL of BBMT medium. Following one hour of virus absorption at 37°, the media was removed and the cells were washed with BBMT (2×100 μL). The cells were incubated with or without 100 μL of the appropriate concentration of test reagent in BBMT medium. After 24 hours of incubation at 37°, the extent of viral replication was determined by an ELISA assay; for instance, the following assay that detects the late glycoprotein C of HSV-1.
Cells were fixed in a microtiter plate with 100 μL of 0.063% glutaraldehyde in phosphate buffered saline for 30 minutes at room temperature. The microtiter plate was then washed once with casein blocking solution and blocked with 200 μL of the same solution for one hour at room temperature. Thereafter, 100 μL of mAB Cll recognizing HSV-1 gC envelope protein [see E. Trybala et al., Journal of General Virology, 75, 743 (1994)] was added to each well for two hours at room temperature. The plate was washed three times with phosphate buffered saline containing 0.05% polyoxyethylene (20) sorbitan monooleate. The cells were and incubated with 100 μL of sheep anti-mouse IgC horseradish peroxidase for one hour at room temperature in the dark.
The plate then was washed three times with 200 μL of the above-noted phosphate buffer saline preparation, and then once with 0.1M sodium citrate (pH 4.5). Thereafter, 100 μL of orthophenylenediamine dihydrochloride (OPD, Gibco, Canada Inc.) was added to each well. The plate was agitated on a microplate shaker for 30 minutes in the dark. Color development was monitored at 450 nm using a microplate spectrophotometer.
SAS was used to calculate % inhibition of viral replication and to generate ECl50 values.
The results are illustrated in accompanying FIG. 1.
More explicitly with reference to the isobole method, this method requires experimental data generated for the two test compounds, each alone and in different combinations. In this way selected concentrations of the title compound of example 9 (EC5, EC10, EC20 and EC30) were added to a given concentration of ACV and the EC50 's were evaluated as described previously. For these experiments, the EC5, EC10, EC20 and EC30 of the title compound of example 9 (i.e. the test compound) were derived from inhibition curves previously obtained. An isobologram is generated using for the Y axis a value termed FEC60 (ACV) (which is the ratio of the concentration of ACV required to inhibit HSV replication by 60% in the presence of a fixed concentration of the test compound to the concentration required in the absence of the test compound). This is plotted against a term representing the ratio of the fixed concentration of the test compound to the concentration of the test compound that reduced inhibition of HSV replication in the absence of ACV (the X axis).
The following TABLE III is illustrative of results obtained when combinations of ACV and the title compound of example 9 (TC) were evaluated for their antiherpes activity against HSV-1. […]

[2] = test system: HSV-1 strain F; assay: Inhibition of HSV-1 replication in cell culture (BHK-21 cells, ELISA of glycoprotein C), strain F; format: cell-based, Herpes simplex virus type 1; details: 24 hours incubation, read-out: EC50 (inhibition of viral replication)
Description: BHK-21 cells clone 13 (ATCC CCL10) were incubated for two days in 850 cm^2 roller bottles (2×10^7 cells/bottle) with alpha-MEM medium (Gibco Canada Inc., Burlington, Ontario, Canada) supplemented with 8% (v/v) fetal bovine serum (FBS, Gibco Canada, Inc.). The cells were trypsinized and then transferred to fresh media in a 96-well microtiter plate at a density of 50,000 cells per well in 100 μL. The cells were incubated at 37° for a period of 6 hours to allow adhesion to the plate. The cells then were washed once with 100 μL of alpha-MEM supplemented with 0.5% FBS (v/v) and incubated with 100 μL of the same media for 3 days. After this period of serum starvation, the low serum media was removed. The cells were washed once with 100 μL BBMT and incubated for two hours in 100 μL of the same media. {Note: BBMT medium is described by P. Brazeau et al., Proc. Natl. Acad. Sci. U.S.A., 79, 7909 (1980).} Thereafter, the cells were infected with HSV-1 strain F or KOS (multiplicity of infection =0.05 PFU/cell) in 50 μL of BBMT medium. Following one hour of virus absorption at 37°, the media was removed and the cells were washed with BBMT (2×100 μL). The cells were incubated with or without 100 μL of the appropriate concentration of test reagent in BBMT medium. After 24 hours of incubation at 37°, the extent of viral replication was determined by an ELISA assay; for instance, the following assay that detects the late glycoprotein C of HSV-1. Cells were fixed in a microtiter plate with 100 μL of 0.063% glutaraldehyde in phosphate buffered saline for 30 minutes at room temperature. The microtiter plate was then washed once with casein blocking solution and blocked with 200 μL of the same solution for one hour at room temperature. […] Color development was monitored at 450 nm using a microplate spectrophotometer. […] The following TABLE II provides examples of the results obtained when compounds of formula 1 were evaluated according to the cell culture assay (HSV-1 strain F) of this example.

[3] = target: T1, HSV-1 ribonucleotide reductase (Human herpesvirus 1, UniProt P08543); assay: Inhibition of Herpes Simplex Virus (HSV-1) ribonucleotide reductase; format: biochemical; details: partially purified enzyme from HSV-1 strain F infected BHK-21/C13 cells; mean of four assays; read-out: IC50 (concentration producing 50% of the maximal inhibition of enzyme activity)
T1 construct: HSV-1 ribonucleotide reductase (partially purified) was obtained from quiescent BHK-21/Cl13 cells infected with strain F HSV-1 virus; made in house; host or cells: quiescent BHK-21/C13 hamster cells infected with HSV-1 strain F; native viral enzyme, partially purified
Description: HSV-1 ribonucleotide reductase (partially purified) was obtained from quiescent BHK-21/Cl13 cells infected with strain F HSV-1 virus at 10 plaque forming units/cell as described by E. A. Cohen et al., J. Gen. Virol., 66, 733 (1985).
The assay described by P. Gaudreau et al., J. Biol, Chem., 262, 12413 (1987), is used to evaluate the capability of the compounds of formula 1 to inhibit HSV-1 ribonucleotide reductase activity. The assay results are expressed as the concentration of the compound producing 50% of the maximal inhibition (IC50) of enzyme activity. The number of units of the enzyme preparation used in each assay was constant, based on the specific activity of the enzyme preparation. The results are relative to the activity obtained in control experiments without the test compound and represent the means of four assays that varied less than 10% with each other.

T1 sequence (P08543 whole entry): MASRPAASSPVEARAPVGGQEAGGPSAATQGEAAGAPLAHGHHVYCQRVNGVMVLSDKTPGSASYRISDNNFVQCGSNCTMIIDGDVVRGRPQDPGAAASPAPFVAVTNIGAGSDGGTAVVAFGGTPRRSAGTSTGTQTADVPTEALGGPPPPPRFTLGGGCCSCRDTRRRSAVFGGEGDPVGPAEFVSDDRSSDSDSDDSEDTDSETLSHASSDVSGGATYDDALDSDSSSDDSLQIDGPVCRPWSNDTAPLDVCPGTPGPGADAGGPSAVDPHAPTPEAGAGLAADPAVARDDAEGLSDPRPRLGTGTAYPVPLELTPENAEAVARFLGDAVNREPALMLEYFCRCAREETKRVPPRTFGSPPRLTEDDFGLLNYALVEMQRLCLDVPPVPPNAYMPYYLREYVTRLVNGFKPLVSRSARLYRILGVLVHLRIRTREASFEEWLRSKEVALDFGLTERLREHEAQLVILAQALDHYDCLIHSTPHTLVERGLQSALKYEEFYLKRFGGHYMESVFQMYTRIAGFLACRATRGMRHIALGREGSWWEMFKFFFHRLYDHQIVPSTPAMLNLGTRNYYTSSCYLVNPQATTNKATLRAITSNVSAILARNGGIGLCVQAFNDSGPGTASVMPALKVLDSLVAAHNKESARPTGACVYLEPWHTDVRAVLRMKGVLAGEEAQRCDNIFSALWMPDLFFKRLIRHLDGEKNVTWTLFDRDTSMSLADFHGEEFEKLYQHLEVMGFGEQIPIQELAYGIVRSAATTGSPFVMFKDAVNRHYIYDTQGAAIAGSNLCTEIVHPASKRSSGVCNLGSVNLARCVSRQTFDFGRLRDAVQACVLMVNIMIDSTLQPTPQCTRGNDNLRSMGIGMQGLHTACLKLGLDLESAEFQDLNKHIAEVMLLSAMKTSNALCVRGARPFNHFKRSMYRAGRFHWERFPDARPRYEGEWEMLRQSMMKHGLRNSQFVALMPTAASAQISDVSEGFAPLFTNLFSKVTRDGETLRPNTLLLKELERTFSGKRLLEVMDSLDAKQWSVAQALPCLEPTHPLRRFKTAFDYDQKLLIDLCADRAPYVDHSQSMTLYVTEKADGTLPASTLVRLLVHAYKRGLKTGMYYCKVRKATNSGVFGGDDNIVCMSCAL

## Nc1nc2c(ncn2COCCO)c(=O)[nH]1 [ACV, acyclovir]
[1]; ACV + 0.05 μM of TC, read-out: EC50 of ACV in combination
  EC50: 6300 nM
[1]; ACV + 0.1 μM of TC, read-out: EC50 of ACV in combination
  EC50: 3200 nM
[1]; ACV + 0.15 μM of TC, read-out: EC50 of ACV in combination
  EC50: 1790 nM
[1]; ACV + 0.2 μM of TC, read-out: EC50 of ACV in combination
  EC50: 1790 nM
[1]; ACV + 0.3 μM of TC, read-out: EC50 of ACV in combination
  EC50: 1000 nM
[1]; ACV + 0.4 μM of TC, read-out: EC50 of ACV in combination
  EC50: 500 nM
[1]; compound alone, read-out: EC50
  EC50: 6950 nM

## CC[C@@H](NC(=O)[C@@H](NC(=O)[C@@H](CC(=O)[C@@H](NC(=O)[C@H](C(C)C)N(C)C(=O)[C@H](C)CC1CCCCC1)C(C)(C)C)CC(=O)C(C)(C)C)C1(C(=O)O)CCCC1)C(C)(C)C [R^1 =H and R^2 =Me, (3-Cyclohexyl-2(R)-methyl-1-oxopropyl)-(N--Me) Val-Tbg-CH2 --(R)--CH(CH2 C(O)CMe3)--C (O)-Asp(cyPn)-NH--(R)--CH(Et)CMe3]
[2]
  EC50: 400 nM
[1]; compound alone, read-out: EC50
  EC50: 473 nM
[1]; increasing concentrations of the title compound of example 9
  Effect of combining with acyclovir on the EC50 of acyclovir (synergy, isobole method): proportional lowering of the EC50 of acyclovir
[3]
  IC50: 147 nM

## (3-cyclohexyl-2 (R), 3 (R)-dimethyl-1-oxopropyl)-(N-Me) Val-Tbg-CH2 --(R)--CH (CH2 C(O) CMe3)C(O)-Asp (cyPn)-NH--(R)--CH (Et) CMe3 [R^1 and R^2 =Me]
[2]
  EC50: 200 nM
[3]
  IC50: 191 nM

## {3-cyclohexyl-2(S)-(1-methylethyl)-1-oxopropyl}-(N-Me) Val-Tbg-CH2 --(R)--CH(CH2 C(O)CMe3)C(O)-Asp(cypn)-NH--(R)--CH (Et)CMe3 [R^1 =H and R^2 =CHMe2]
[2]
  EC50: 200 nM
[3]
  IC50: 123 nM
